Experimental data reported in EP4603105A1, “PHARMACEUTICAL COMPOSITION CONTAINING CYCLIC COMPOUND HAVING SELECTIVE KRAS INHIBITORY EFFECT AGAINST HRAS AND NRAS” (CHUGAI SEIYAKU KABUSHIKI KAISHA, priority 2022, dated 2024).

How the values were obtained:
[1] = target: GDP-bound NRAS wild-type protein (Homo sapiens, UniProt P01111); assay: Binding to NRAS by surface plasmon resonance (SPR), KD and KD ratio to KRAS; conditions: ratio of KD for GDP-bound NRAS wild-type protein to KD for KRAS
Summary of the method: (§1)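 Each cycle, GDP-bound biotin-Avi RAS was captured (~100–300 RU), compound concentrations were injected low to high for 75 s each at 100 µL/min, then the chip was regenerated. Buffer: HBS pH 7.4, 10 mM MgCl2, 10 µM GDP, 1 mM DTT, 4% DMSO; 30°C. KD from a 1:1 binding model.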

HRAS wild-type protein = HRAS wild-type protein (Homo sapiens, UniProt P01112); assay: Binding to HRAS by surface plasmon resonance (SPR), KD and KD ratio to KRAS; conditions: ratio of KD for HRAS wild-type protein to KD for KRAS
HRAS wild-type protein, sequence (P01112 whole entry): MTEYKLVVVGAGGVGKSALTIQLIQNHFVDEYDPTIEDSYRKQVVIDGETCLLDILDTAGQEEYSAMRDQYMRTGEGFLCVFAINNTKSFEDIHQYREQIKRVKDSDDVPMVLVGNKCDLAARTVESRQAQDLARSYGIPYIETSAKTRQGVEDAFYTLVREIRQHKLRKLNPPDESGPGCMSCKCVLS
Summary of the method: as §1

[2] = target: GDP-bound KRAS wild-type protein (Homo sapiens, UniProt P01116); assay: Binding to KRAS by surface plasmon resonance (SPR), dissociation constant KD; conditions: 1:1 binding model
GDP-bound KRAS wild-type protein, sequence (P01116 1-188 isoform P01116-2): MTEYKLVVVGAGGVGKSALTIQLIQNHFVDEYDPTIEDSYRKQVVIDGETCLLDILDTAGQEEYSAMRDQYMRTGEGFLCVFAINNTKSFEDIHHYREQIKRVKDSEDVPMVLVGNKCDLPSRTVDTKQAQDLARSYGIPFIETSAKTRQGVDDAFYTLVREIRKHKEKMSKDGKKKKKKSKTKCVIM
Summary of the method: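 GDP-bound biotin-Avi RAS captured at ~100–300 RU, 30°C, pH 7.4 HBS containing 10 µM GDP, 10 mM MgCl2, 1 mM DTT, 0.01% Tween 20 and 4% DMSO. KD by 1:1 fitting.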

[3] = system: human lung cancer strain NCI-H441; assay: NCI-H441 cell proliferation inhibitory activity (CellTiter-Glo, 4 days); assay type: cell-based; conditions: NCI-H441 cells, 4 days, read-out: NCl-H441 IC50
Summary of the method: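 Signal came from […] measured per well once the reagent was added. Beforehand, cells were cultured at 37°C and 5% carbon dioxide on a compound series serially diluted in dimethyl sulfoxide.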

GDP-bound NRAS wild-type protein, sequence (P01111 whole entry): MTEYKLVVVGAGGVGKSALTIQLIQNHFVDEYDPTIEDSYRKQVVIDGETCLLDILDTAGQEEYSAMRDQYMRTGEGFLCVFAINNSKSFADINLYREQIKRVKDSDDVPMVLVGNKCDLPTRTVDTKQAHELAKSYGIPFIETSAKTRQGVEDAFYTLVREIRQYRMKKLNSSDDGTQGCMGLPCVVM

Row | SMILES | Kd [2] | IC50 [3] | NRAS /KRAS [1] | HRAS /KRAS (HRAS wild-type protein)
1 | CCO[C@@H]1C[C@H]2C(=O)NC3(CC(C)(C)C3)C(=O)N(C)[C@@H](C3CCCC3)C(=O)N(C)[C@H](C(=O)N(CC)CC)CC(=O)N(C)[C@@H](COC)C(=O)N[C@@H]([C@@H](C)CC)C(=O)N(C)CC(=O)N(C)[C@H]3C/C=C\CCN(C3=O)[C@@H](Cc3ccc(C)cc3)C(=O)N(C)CC(=O)N[C@@H](CCc3cc(F)c(C(F)(F)F)c(F)c3)C(=O)N2C1 [PP2403] | 0.22 nM | 7.2 nM | A (a compound having 10 or more and less than 20 is denoted as A) | A (a compound having 10 or more and less than 20 is denoted as A)
2 | CCOC[C@H]1C(=O)N[C@@H]([C@@H](C)CC)C(=O)N(C)CC(=O)N(C)[C@H]2C/C=C\CCN(C2=O)[C@@H](Cc2ccc(C)cc2)C(=O)N(C)CC(=O)N[C@@H](CCc2ccc(C(F)(F)F)c(OC)c2)C(=O)N2C[C@@H](C)C[C@H]2C(=O)NC2(CC(C)(C)C2)C(=O)N(C)[C@@H](C2CCCC2)C(=O)N(C)[C@H](C(=O)N(CC)CC)CC(=O)N1C [PP2405] | 0.31 nM | 8.6 nM | A (a compound having 10 or more and less than 20 is denoted as A) | A (a compound having 10 or more and less than 20 is denoted as A)
3 | CCOC[C@H]1C(=O)N[C@@H]([C@@H](C)CC)C(=O)N(C)CC(=O)N(C)[C@H]2C/C=C\CCN(C2=O)[C@@H](Cc2ccc(C)cc2)C(=O)N(C)CC(=O)N[C@@H](CCc2ccc(C(F)(F)F)c(OC)c2)C(=O)N2C[C@H](OCC)C[C@H]2C(=O)NC2(CC(C)(C)C2)C(=O)N(C)[C@@H](C2CCCC2)C(=O)N(C)[C@H](C(=O)N(CC)CC)CC(=O)N1C [PP2406] | 0.29 nM | 21.3 nM | A (a compound having 10 or more and less than 20 is denoted as A) | A (a compound having 10 or more and less than 20 is denoted as A)
4 | CCOC[C@H]1C(=O)N[C@@H]([C@@H](C)CC)C(=O)N(C)CC(=O)N(C)[C@H]2C/C=C\CCN(C2=O)[C@@H](Cc2ccc(C)cc2)C(=O)N(C)CC(=O)N[C@@H](CCc2cc(F)c(C(F)(F)F)c(F)c2)C(=O)N2C[C@@H](C)C[C@H]2C(=O)NC2(CC(C)(C)C2)C(=O)N(C)[C@@H](C2CCCC2)C(=O)N(C)[C@H](C(=O)N(CC)CC)CC(=O)N1C [PP2407] | 0.5 nM | 60.1 nM | A (a compound having 10 or more and less than 20 is denoted as A) | A (a compound having 10 or more and less than 20 is denoted as A)
5 | CCOC[C@H]1C(=O)N[C@@H]([C@@H](C)CC)C(=O)N(C)CC(=O)N(C)[C@H]2C/C=C\CCN(C2=O)[C@@H](Cc2ccc(C)cc2)C(=O)N(C)CC(=O)N[C@@H](CCc2cc(F)c(C(F)(F)F)c(F)c2)C(=O)N2C[C@H](OCC)C[C@H]2C(=O)NC2(CC(C)(C)C2)C(=O)N(C)[C@@H](C2CCCC2)C(=O)N(C)[C@H](C(=O)N(CC)CC)CC(=O)N1C [PP2408] | 0.23 nM | 21.3 nM | A (a compound having 10 or more and less than 20 is denoted as A) | A (a compound having 10 or more and less than 20 is denoted as A)
6 | CC[C@H](C)[C@@H]1NC(=O)[C@H](CC(C)C)N(C)C(=O)C[C@@H](C(=O)N(C)C)N(C)C(=O)[C@H](C2CCCC2)N(C)C(=O)C2(CC(C)(C)C2)NC(=O)[C@@H]2C[C@H](C)CN2C(=O)[C@H](CCc2ccc(C(F)(F)F)c(OC)c2)NC(=O)CN(C)C(=O)[C@H](Cc2ccc(C)cc2)N2CC/C=C\C[C@@H](C2=O)N(C)C(=O)[C@@H]2CCCN2C1=O [PP2409] | 0.48 nM | 31.9 nM | A (a compound having 10 or more and less than 20 is denoted as A) | B (a compound having 3 or more and less than 10 is denoted as B)
7 | CCO[C@H](C)[C@@H]1NC(=O)[C@H](CC(C)C)N(C)C(=O)C[C@@H](C(=O)N(C)CC)N(C)C(=O)[C@H](C2CCCC2)N(C)C(=O)C2(CC(C)(C)C2)NC(=O)[C@@H]2C[C@H](C)CN2C(=O)[C@H](CCc2ccc(C(F)(F)F)c(OC)c2)NC(=O)CN(C)C(=O)[C@H](Cc2ccc(C)cc2)N2CC/C=C\C[C@@H](C2=O)N(C)C(=O)CN(C)C1=O [PP2413] | 0.25 nM | 115 nM | A (a compound having 10 or more and less than 20 is denoted as A) | A (a compound having 10 or more and less than 20 is denoted as A)
8 | CCO[C@H](C)[C@@H]1NC(=O)[C@H](CC(C)C)N(C)C(=O)C[C@@H](C(=O)N(C)CC)N(C)C(=O)[C@H](C2CCCC2)N(C)C(=O)C2(CC(C)(C)C2)NC(=O)[C@@H]2C[C@H](C)CN2C(=O)[C@H](CCc2cc(F)c(C(F)(F)F)c(F)c2)NC(=O)CN(C)C(=O)[C@H](Cc2ccc(C)cc2)N2CC/C=C\C[C@@H](C2=O)N(C)C(=O)CN(C)C1=O [PP2414] | 0.33 nM | 9.8 nM | A (a compound having 10 or more and less than 20 is denoted as A) | A (a compound having 10 or more and less than 20 is denoted as A)

Compounds with a lower Kd [2], results first:

Row | Kd [2] | IC50 [3] | SMILES | NRAS /KRAS [1] | HRAS /KRAS (HRAS wild-type protein)
9 | 0.069 nM | 4.1 nM | CCO[C@@H]1C[C@H]2C(=O)NC3(CC(C)(C)C3)C(=O)N(C)[C@@H](C3CCCC3)C(=O)N(C)[C@H](C(=O)N(C)CC)CC(=O)N(C)[C@@H](COC)C(=O)N[C@@H]([C@@H](C)CC)C(=O)N(C)CC(=O)N(C)[C@H]3C/C=C\CCN(C3=O)[C@@H](Cc3ccc(C)cc3)C(=O)N(C)CC(=O)N[C@@H](CCc3cc(F)c(C(F)(F)F)c(F)c3)C(=O)N2C1 [PP2396] | A (a compound having 10 or more and less than 20 is denoted as A) | A (a compound having 10 or more and less than 20 is denoted as A)
10 | 0.051 nM | 4.7 nM | CCOC[C@H]1C(=O)N[C@@H]([C@@H](C)CC)C(=O)N(C)CC(=O)N(C)[C@H]2C/C=C\CCN(C2=O)[C@@H](Cc2ccc(C)cc2)C(=O)N(C)CC(=O)N[C@@H](CCc2cc(F)c(C(F)(F)F)c(F)c2)C(=O)N2C[C@H](OCC)C[C@H]2C(=O)NC2(CC(C)(C)C2)C(=O)N(C)[C@@H](C2CCCC2)C(=O)N(C)[C@H](C(=O)N(C)C)CC(=O)N1C [PP2397] | A (a compound having 10 or more and less than 20 is denoted as A) | A (a compound having 10 or more and less than 20 is denoted as A)
11 | 0.12 nM | 5.3 nM | CCOC[C@H]1C(=O)N[C@@H]([C@@H](C)CC)C(=O)N(C)CC(=O)N(C)[C@H]2C/C=C\CCN(C2=O)[C@@H](Cc2ccc(C)cc2)C(=O)N(C)CC(=O)N[C@@H](CCc2ccc(C(F)(F)F)c(Cl)c2)C(=O)N2C[C@H](OCC)C[C@H]2C(=O)NC2(CC(C)(C)C2)C(=O)N(C)[C@@H](C2CCCC2)C(=O)N(C)[C@H](C(=O)N(C)CC)CC(=O)N1C [PP2401] | A (a compound having 10 or more and less than 20 is denoted as A) | A (a compound having 10 or more and less than 20 is denoted as A)
12 | 0.092 nM | 10.6 nM | CCCOC[C@H]1C(=O)N[C@@H]([C@@H](C)CC)C(=O)N(C)CC(=O)N(C)[C@H]2C/C=C\CCN(C2=O)[C@@H](Cc2ccc(C)cc2)C(=O)N(C)CC(=O)N[C@@H](CCc2ccc(C(F)(F)F)c(Cl)c2)C(=O)N2C[C@H](OCC)C[C@H]2C(=O)NC2(CC(C)(C)C2)C(=O)N(C)[C@@H](C2CCCC2)C(=O)N(C)[C@H](C(=O)N(C)C)CC(=O)N1C [PP2402] | A (a compound having 10 or more and less than 20 is denoted as A) | A (a compound having 10 or more and less than 20 is denoted as A)
13 | 0.09 nM | 4.1 nM | CCOC[C@H]1C(=O)N[C@@H]([C@@H](C)CC)C(=O)N(C)CC(=O)N(C)[C@H]2C/C=C\CCN(C2=O)[C@@H](Cc2ccc(C)cc2)C(=O)N(C)CC(=O)N[C@@H](CCc2cc(F)c(C(F)(F)F)c(F)c2)C(=O)N2C[C@H](OCC)C[C@H]2C(=O)NC2(CC(C)(C)C2)C(=O)N(C)[C@@H](C2CCCC2)C(=O)N(C)[C@H](C(=O)N(C)CC)CC(=O)N1C [PP2404] | A (a compound having 10 or more and less than 20 is denoted as A) | A (a compound having 10 or more and less than 20 is denoted as A)
14 | 0.15 nM | 21 nM | CCO[C@H](C)[C@@H]1NC(=O)[C@H](CC(C)C)N(C)C(=O)C[C@@H](C(=O)N(C)C)N(C)C(=O)[C@H](C2CCCC2)N(C)C(=O)C2(CC(C)(C)C2)NC(=O)[C@@H]2C[C@H](C)CN2C(=O)[C@H](CCc2ccc(C(F)(F)F)c(OC)c2)NC(=O)CN(C)C(=O)[C@H](Cc2ccc(C)cc2)N2CC/C=C\C[C@@H](C2=O)N(C)C(=O)CN(C)C1=O [PP2412] | A (a compound having 10 or more and less than 20 is denoted as A) | B (a compound having 3 or more and less than 10 is denoted as B)
15 | 0.093 nM | 10.3 nM | CCCO[C@H](C)[C@@H]1NC(=O)[C@H](CC(C)C)N(C)C(=O)C[C@@H](C(=O)N(C)C)N(C)C(=O)[C@H](C2CCCC2)N(C)C(=O)C2(CC(C)(C)C2)NC(=O)[C@@H]2C[C@H](C)CN2C(=O)[C@H](CCc2ccc(C(F)(F)F)c(OC)c2)NC(=O)CN(C)C(=O)[C@H](Cc2ccc(C)cc2)N2CC/C=C\C[C@@H](C2=O)N(C)C(=O)CN(C)C1=O [PP2415] | AA (a compound having 20 or more is denoted as AA) | A (a compound having 10 or more and less than 20 is denoted as A)
